# Measured values published in patent publication US20080206198A1, “Compounds and methods for pharmico-gene therapy of epithelial sodium channel associated disorders” (priority 2003, published 2008).
# Tests used:
# [1] = tested on: polarized human airway epithelial cells; conditions: hypotonic EGTA solution alone; cited from earlier work
# [2] = tested on: HeLa cells; experiment: AAV2 FLAG-Luc transduction of HeLa cells (luciferase screen); type: cell-based, human
# Text: A. To screen for agents that enhance rAAV transduction, any number of cells can be used. A range of concentrations of the agent to be tested can be determined based on, for instance desirable profiles of the agent, desirable toxicity profiles of the agent and/or concentration of the agents employed in vivo. The usefulness of the cell type chosen for the screen can be confirmed by testing compounds, e.g., proteasome inhibitors such as LLnL and ZLL which are known to increase rAAV transduction. For example, a AAV2 FLAG-Luc vector was employed to transduce HeLa, ferret fibroblasts, IB3 and Huh (liver) cells in the presence or absence of the proteasome inhibitor MG132. MG132 was confirmed to enhance AAV transduction in all cell types tested: HeLa cell transduction was enhanced about 500-fold at 80 μM, and 200-fold at 40 μM, MG132; ferret fibroblast cell transduction was enhanced about 200-fold at 20 μM, and 17-fold at 4 μM, MG132; IB3-1 cell transduction was enhanced about 30 to 70-fold at 20 to 80 μM MG132; and Huh-7 cell transduction was enhanced about 15-fold at 20 to 80 μM MG132. There was no difference in rAAV transduction efficiency in HeLa cells when either DMSO or ETOH was used as a vehicle for MG132. B. HeLa cells were selected to screen for additional agents that enhance rAAV transduction, although any cell strain or line; or primary cells, may be employed. […] The range of concentrations of the agents to be tested were selected based on solubility profiles, toxicity profiles and/or concentrations previously employed in vivo.
# HeLa cells were infected for 2 hours with an MOI of 100 rAAV in the presence of agents, e.g., ritonavir (Norvir) (1, 10 and 100 μM), cyclosporin A (2.5, 25 and 250 μg/ml), epoxomicin (1, 10 and 50 μM), alcacinomycin A (5, 50 or 500 μM), chymostatin (1, 10 and 100 μM), bestatin (1, 10 and 100 μM), doxorubicin (adriamycin) (0.1, 1 and 10 μM), camptothecin (camptosar) (1, 10 and 100 μM), eicosapentanoic acid (1, 10 and 100 μM), tannic acid (2, 20, 200 and 2000 μM), simvastatin, prodrug (2, 20 and 200 μM), cisplatin (0.2, 2 and 20 μg/mL), and chloroquine (4, 40 and 400 μM). Forty-eight hours after infection, cells were harvested for analysis. rAAV transduction was measured by removing the media from the cell cultures, adding 100 μL reporter lysis buffer (RLB) and freezing. The supernatant was thawed and transferred to microfuge tubes, freeze thawed an additional 2 times, clarified by centrifugation for 10 minutes and then analyzed for reporter gene expression on the lumometer. Protein was determined by Bradford analysis and results were expressed as relative light units per mg protein (RLU/mg).
# Based on results with doxorubicin, a small number of FDA approved anthracyclines were tested for their relative in vitro and in vivo activities on AAV transduction. HeLa cells were infected with 100 ppc AAV2FLAG-Luc for 2 hours in the presence of different anthracyclines, e.g., doxorubicin, daunarubicin (Cerubidine), epirubicin (Ellence™), and idarubicin (Idamycin®), and cells harvested 48 hours later. The anthracyclines were pharmaceutical grade, and prepared according to the manufacturer's instructions. Prior to use, the agents were diluted in sterile water to an equal mass, e.g., 0.6 μg/mL, 3 μg/mL and 6 μg/mL. For example, 3 μg/mL idamycin increased luciferase expression by over 5000-fold while doxorubin increased luciferase expression by 58-fold. Generally, the potency was as follows: idarubicin>daunarubicin>epirubicin>doxorubicin.
# [3] = tested on: mouse lung; experiment: Intranasal AAV2-Luc with anthracyclines in Balb/c mice (lung luciferase); type: in vivo; conditions: 10% HDE intranasal, day 7
# Text: (§1) Animals were followed for seven days post dose.
# The dose of modulator was based on the Human Dose Equivalent (HDE) and is summarized below in Table 4. For intranasal dose administration, the dose was held constant at 10% of the HDE.
# On the day of sacrifice, the left lung was clamped off at the level of the extrapulmonary bronchi, removed and frozen on dry ice. The left lung was homogenized and processed for luciferase expression using Promega's luciferase assay system (Madison, Wis.). Luminescence was measured using the Berthold AutoLumat LB953 instrument. Samples were normalized for total protein using Pierce's Coomassie Plus Protein Assay Reagent (Rockford, Ill.).
# [4] = tested on: Balb/c mice; experiment: Safety of anthracyclines in Balb/c mice; type: in vivo, mouse; conditions: intranasal, 10% HDE
# Text: as §1
# Safety endpoints included morbidity and mortality, clinical observations, body weights, gross necropsy observations and histopathology. Transduction endpoints included luciferase and GFP analysis.
SMILES,increase of AAV transduction from the apical surface [1] [fold],"increase in luciferase expression ([2]; 3 μg/mL, 100 ppc AAV2FLAG-Luc, harvest 48 hours)","order of potency among anthracyclines ([2]; 0.6, 3 and 6 μg/mL)",Fold Increase in luciferase expression ([3]; both sexes),"luciferase expression, Average ([3]; both sexes)",Fold Increase in luciferase expression ([3]; female),"luciferase expression, Average ([3]; female)",Fold Increase in luciferase expression ([3]; male),"luciferase expression, Average ([3]; male)",mortality and clinical observations ([4]; 7 days),body weight ([4]; over the week)
O=C(O)CN(CCOCCOCCN(CC(=O)O)CC(=O)O)CC(=O)O [EGTA],7 to 10,,,,,,,,,,
"CC(=O)[C@]1(O)Cc2c(O)c3c(c(O)c2[C@@H](O[C@H]2C[C@H](N)[C@H](O)[C@H](C)O2)C1)C(=O)c1ccccc1C3=O [Idamycin, idarubicin]",,over 5000 fold,idarubicin>daunarubicin>epirubicin>doxorubicin,90,5.06E+05,57,2.02E+05,111,8.11E+05,"early mortality of some animals, ruffled hair coats and sick mice",lost considerable body weight
